The NIST ThermoML archive (doi:10.1016/j.tca.2016.02.008)
Numbers after ± are expanded uncertainties.

Tests used:
[1] = for Normal melting temperature: DTA
[2] = Molar enthalpy of transition or fusion; conditions: DSC

CCCCCCCC/C=C\CCCCCCCC(=O)O [(Z)-9-octadecenoic acid]
Normal melting temperature ([1]; Crystal 1): 13.70 ± 0.4 °C
Triple point temperature ([1]; Crystal 2, DSC): 268.95 ± 0.8 K
Molar enthalpy of transition or fusion ([2]; Crystal 1): 37.6 ± 1.9 kJ/mol
Molar enthalpy of transition or fusion ([2]; Crystal 2): 7.82 ± 0.42 kJ/mol

CCCCC/C=C\C/C=C\CCCCCCCC(=O)O [(Z,Z)-9,12-octadecadienoic acid]
Normal melting temperature ([1]; Crystal): -5.40 ± 0.4 °C
Molar enthalpy of transition or fusion ([2]; Crystal): 31.2 ± 1.6 kJ/mol

CC/C=C\C/C=C\C/C=C\CCCCCCCC(=O)O [all-cis-9,12,15-octadecatrienoic acid]
Normal melting temperature ([1]; Crystal): -10.90 ± 0.4 °C
Molar enthalpy of transition or fusion ([2]; Crystal): 29.3 ± 1.5 kJ/mol

CCCCCCCCCCCCCCCC(=O)O [hexadecanoic acid]
Normal melting temperature ([1]; Crystal): 63.10 ± 0.4 °C
Molar enthalpy of transition or fusion ([2]; Crystal): 54 ± 2.7 kJ/mol

CCCCCCCCCCCCCCCCCC(=O)O [octadecanoic acid]
Normal melting temperature ([1]; Crystal): 70.60 ± 0.4 °C
Molar enthalpy of transition or fusion ([2]; Crystal): 63.1 ± 3.1 kJ/mol
